Structures are written as SMILES. Calls of active or inactive are those of the source. The rule behind the calls is not given here.

In experiment [1] the test system is Vaccinia virus. Kind of experiment: Antiviral activity against Vaccinia virus WR harboring HIV gag gene infected in HeLaS3 cells at 30 uM administered as intermittent infusion over 1 hr measured in hollow-fiber infection model after 72 hrs by ELISA. Type of experiment: functional, organism-based. The settings on record: Orthopoxvirus vaccinia, HeLa S3. (ELISA stands for enzyme-linked immunosorbent assay.)

Experiment [2] deals with Vaccinia virus. Kind of experiment: Antiviral activity against Vaccinia virus WR harboring the HIV gag gene infected in HeLaS3 cells after 3 to 5 days by plaque assay. Type of experiment: functional, organism-based. The following applies: Orthopoxvirus vaccinia, HeLa S3.
In experiment [3] the test system is Vaccinia virus. Put plainly: Antiviral activity against Vaccinia virus WR harboring HIV gag gene infected in HeLaS3 cells at 3 uM as continuous infusion in hollow-fiber infection model after 72 hrs by ELISA. The class given is functional, organism-based. The following applies: Orthopoxvirus vaccinia, HeLa S3.
Experiment [4] relates to Vaccinia virus. Kind of experiment: Antiviral activity against Vaccinia virus WR harboring the HIV gag gene infected in HeLaS3 cells assessed as inhibition of viral replication in hollow-fiber infection model at >= 50 uM as continuous infusion by plaque assay. The class given is functional, organism-based. The following applies: Orthopoxvirus vaccinia, HeLa S3.
The test system of experiment [5] is Vaccinia virus. Kind of experiment: Antiviral activity against Vaccinia virus WR harboring HIV gag gene infected in HeLaS3 cells at 100 uM as continuous infusion in hollow-fiber infection model after 72 hrs by ELISA. The class given is functional, organism-based. The settings on record: Orthopoxvirus vaccinia, HeLa S3.
Experiment [6] has as its system Vaccinia virus. Put plainly: Antiviral activity against Vaccinia virus WR harboring HIV gag gene infected in HeLaS3 cells compound administered as bolus infusion equivalent to 100 uM continuous infusion in hollow-fiber infection model after 72 hrs by ELISA. The class given is functional, Orthopoxvirus vaccinia, HeLa S3.
Experiment [7] deals with Vaccinia virus. Put plainly: Antiviral activity against Vaccinia virus WR harboring HIV gag gene infected in HeLaS3 cells at 30 uM as continuous infusion in hollow-fiber infection model after 72 hrs by ELISA. The class given is functional, organism-based. The following applies: Orthopoxvirus vaccinia, HeLa S3.
The test system of experiment [8] is Vaccinia virus. Put plainly: Antiviral activity against Vaccinia virus WR harboring the HIV gag gene infected in HeLaS3 cells assessed as inhibition of viral replication in hollow-fiber infection model by plaque assay. The class given is functional, organism-based. The settings on record: Orthopoxvirus vaccinia, HeLa S3.
Experiment [9] relates to Vaccinia virus. Kind of experiment: Antiviral activity against Vaccinia virus WR harboring HIV gag gene infected in HeLaS3 cells at 3 uM administered as intermittent infusion over 1 hr measured after 72 hrs in hollow-fiber infection model by ELISA. The class given is functional, organism-based. The following applies: Orthopoxvirus vaccinia, HeLa S3.
The test system of experiment [10] is Vaccinia virus. Kind of experiment: Antiviral activity against Vaccinia virus WR harboring HIV gag gene infected in HeLaS3 cells at 100 uM administered as intermittent infusion over 1 hr measured in hollow-fiber infection model after 72 hrs by ELISA. The class given is functional, organism-based. The settings on record: Orthopoxvirus vaccinia, HeLa S3.

As to `Nc1ccn(C[C@@H](CO)OCP(=O)(O)O)c(=O)n1.O.O` [CIDOFOVIR], the outcome in experiment [1], in [3], in [5], in experiment [7], in [9] and in experiment [10] was inactive. Further, the EC50 (as a rule, the concentration at which the effect is half-maximal) in [2] was found to be 30.9 µM. Further, the inhibition entry in experiment [4] is “Active”. Further, the Activity in experiment [6] is 81%. Besides, the IC50 (as a rule, the concentration that inhibits the measured activity by half) in experiment [8] worked out at 38 µM.

The values above are taken from ChEMBL document CHEMBL1629567, “Pharmacodynamics of cidofovir for vaccinia virus infection in an in vitro hollow-fiber infection model system” (Antimicrob Agents Chemother, 2009).
